The values below come from patent EP3298022B1, “NOVEL ANNELATED PHENOXYACETAMIDES” (Boehringer Ingelheim International GmbH, priority 2015, dated 2017).

Data set [1] in a line: in vitro. It is filed as in vitro ADME. As to conditions: human, pH 7.4, 37°C, 10 µM compound; for Papp A→B: apical-to-basal; for Papp B→A: basal-to-apical. On the procedure:
Permeability measurements across polarized, confluent CALU-3 cell monolayers grown on permeable filter supports are used to provide information on the potential of a compound to pass the lung epithelium. Apparent permeability coefficients (Papp) of the compounds across the CALU-3 cell monolayers are measured (pH 7.4, 37°C) in apical-to-basal (AB) and basal-to-apical (BA) transport direction.
CALU-3 cells (1-2 x 10^5 cells/1 cm^2 area) are seeded on filter inserts (Costar transwell polycarbonate filters, 0.4 µm pore size) and cultured (for 10 - 12 days DMEM) until tight monolayers are formed. Compounds of interest are dissolved in appropriate solvent (DMSO, 10 mM stock solution). Stock solutions are diluted with HTP-4 buffer (128.13 mM NaCl, 5.36 mM KCl, 1 mM MgSO4, 1.8 mM CaCl2, 4.17 mM NaHCO3, 1.19 mM Na2HPO4 x 7H2O, 0.41 mM NaH2PO4xH2O, 15 mM HEPES, 20 mM glucose, 0.25 % BSA, pH 7.4) to prepare the transport solutions (10 µM compound, final DMSO <= 0.5 %). The transport solution (TL) is applied to the apical or basolateral donor side for measuring A-B or B-A permeability (3 filter replicates), respectively. The receiver side contains the same buffer as the donor side. After 30 min of accommodation, samples are collected at the start t0 = 0 min and at the end of the experiment tn = 90 min from the donor and at 0, 30, 60, and 90 min also from the receiver chamber. Volume removed is replenished by HTP-4 buffer. The compound concentration in the samples is measured by HPLC-MS/MS or scintillation counting. The permeability coefficient (Papp) and efflux ratio are calculated according to: Papp [cm/s] = (concentration receiver [nM] * volume receiver [mL]/time interval [sec])*(1/filter area)*(1/donor concentration [nM]).

For data set [2], the target named is T1, ENaC (Mus musculus, UniProt Q61180+Q9WU38+Q9WU39).
T1 construct: Mouse kidney M-1 cells were cultivated in DMEM containing 5% FCS and 5µM dexamethasone; endogenous in cells; host or cells: Mouse kidney M-1 cells (cortical collecting duct line), dexamethasone-treated, on transwell filters
T1 sequence (Q61180 1-699): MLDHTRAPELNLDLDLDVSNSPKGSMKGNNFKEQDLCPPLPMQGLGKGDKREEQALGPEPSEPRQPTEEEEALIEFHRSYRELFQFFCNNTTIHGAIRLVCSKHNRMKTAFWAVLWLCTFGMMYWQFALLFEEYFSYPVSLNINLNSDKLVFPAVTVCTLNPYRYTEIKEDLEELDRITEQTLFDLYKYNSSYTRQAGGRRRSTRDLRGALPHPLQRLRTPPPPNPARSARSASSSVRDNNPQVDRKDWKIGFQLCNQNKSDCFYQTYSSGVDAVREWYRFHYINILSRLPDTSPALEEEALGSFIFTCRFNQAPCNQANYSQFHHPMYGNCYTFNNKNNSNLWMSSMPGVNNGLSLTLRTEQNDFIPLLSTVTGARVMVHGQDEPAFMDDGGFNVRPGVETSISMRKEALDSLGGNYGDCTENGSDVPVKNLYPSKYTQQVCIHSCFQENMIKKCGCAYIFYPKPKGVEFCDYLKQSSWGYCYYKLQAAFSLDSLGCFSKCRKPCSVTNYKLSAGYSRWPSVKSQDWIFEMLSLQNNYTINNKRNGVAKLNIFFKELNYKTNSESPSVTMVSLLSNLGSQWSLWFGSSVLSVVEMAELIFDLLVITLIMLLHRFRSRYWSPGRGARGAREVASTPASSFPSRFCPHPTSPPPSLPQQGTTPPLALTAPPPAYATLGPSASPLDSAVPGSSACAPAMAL
T1 sequence (Q9WU38 1-638): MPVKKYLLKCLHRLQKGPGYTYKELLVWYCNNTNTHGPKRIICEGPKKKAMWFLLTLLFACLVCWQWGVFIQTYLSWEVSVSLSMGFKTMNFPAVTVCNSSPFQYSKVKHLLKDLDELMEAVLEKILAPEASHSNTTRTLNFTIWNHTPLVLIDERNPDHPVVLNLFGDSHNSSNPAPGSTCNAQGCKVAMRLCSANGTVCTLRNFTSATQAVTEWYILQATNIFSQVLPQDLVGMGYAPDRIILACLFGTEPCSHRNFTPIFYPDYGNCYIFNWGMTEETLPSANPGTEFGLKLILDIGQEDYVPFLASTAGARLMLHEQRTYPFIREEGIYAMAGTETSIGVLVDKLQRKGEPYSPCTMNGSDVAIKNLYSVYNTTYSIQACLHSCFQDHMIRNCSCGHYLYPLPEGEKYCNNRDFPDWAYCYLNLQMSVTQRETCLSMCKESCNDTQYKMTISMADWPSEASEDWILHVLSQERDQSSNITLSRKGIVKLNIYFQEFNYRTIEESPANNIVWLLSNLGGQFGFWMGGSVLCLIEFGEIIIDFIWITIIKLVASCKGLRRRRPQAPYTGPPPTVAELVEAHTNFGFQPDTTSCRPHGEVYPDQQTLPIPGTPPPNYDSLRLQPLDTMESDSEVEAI
T1 sequence (Q9WU39 1-655): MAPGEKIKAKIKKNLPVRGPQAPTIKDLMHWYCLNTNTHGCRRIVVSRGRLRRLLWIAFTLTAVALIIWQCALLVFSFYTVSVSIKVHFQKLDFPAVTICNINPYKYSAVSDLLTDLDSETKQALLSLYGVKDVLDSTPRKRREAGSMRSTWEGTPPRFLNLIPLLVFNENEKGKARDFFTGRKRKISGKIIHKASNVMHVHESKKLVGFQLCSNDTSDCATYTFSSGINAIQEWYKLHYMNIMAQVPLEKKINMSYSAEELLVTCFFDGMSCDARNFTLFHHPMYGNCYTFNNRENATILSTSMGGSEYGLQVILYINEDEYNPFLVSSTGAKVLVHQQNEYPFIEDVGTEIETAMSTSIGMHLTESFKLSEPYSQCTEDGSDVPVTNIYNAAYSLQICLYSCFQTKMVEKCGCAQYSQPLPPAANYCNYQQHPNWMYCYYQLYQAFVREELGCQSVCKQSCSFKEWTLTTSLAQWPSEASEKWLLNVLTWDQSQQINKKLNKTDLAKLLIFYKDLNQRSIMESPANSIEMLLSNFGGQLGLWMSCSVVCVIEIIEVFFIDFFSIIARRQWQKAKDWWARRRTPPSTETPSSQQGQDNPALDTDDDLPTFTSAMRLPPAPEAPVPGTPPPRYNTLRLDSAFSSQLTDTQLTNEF
Description: Ussing Chamber assay (short circuit current, amiloride sensitive I_SC). Type of data set: cell-based. To be noted: Mouse kidney M-1 cells, apical administration, 37°C. On the procedure: The IC50 values of the example compounds given above were determined in the Ussing Chamber assay.
Ussing Chamber: Mouse kidney M-1 cells were cultivated in DMEM containing 5% FCS and 5µM dexamethasone for 10 to 12 days on polyester transwell filters. Filters were inserted into a teflon-coated well-plate which fit into the ussing chamber system. Prior to measurement the medium of M-1 cells was replaced with Caco-2 transport buffer (Invitrogen, Germany). During measurements, the Ussing chamber temperature was kept at 37°C. Short circuit currents (I_sc) were measured in the voltage-clamp mode with the software package Lab View for data acquisition and analysis. The transepithelial electrical resistance (TEER) was determined by the application of voltage steps of ±5mV every 5 sec. Compounds were administered at a final concentration of 3µM or at increasing concentrations (1-3-10µM) to the apical solution. At the end of each experiment the amiloride sensitive I_SC was measured by adding 3µM amiloride to the apical compartment. Results are expressed as inhibition in percent of the amiloride effect or as IC50.

Structures are written as SMILES.

As usually defined, the Papp A→B is how fast a substance crosses the layer from the apical side. Read a low Papp A→B as poor permeation. The term Papp B→A denotes the apparent permeability from the basolateral to the apical side of a cell layer. On to `CC[n+]1c(CNC(=O)c2nc(Cl)cnc2N)n(CC2CCCO2)c2cc(OCC(=O)N3CC[S+]([O-])CC3)ccc21` (stereo not drawn) [Example 1.01], for which, in data set [1], the Papp A→B amounted to 0.8 ×10⁻⁶ cm/s and the basolateral-to-apical permeability (Papp B→A) was 0.3 ×10⁻⁶ cm/s.

By IC50 is commonly meant the concentration that inhibits the measured activity by half. Consider `CCn1c(CNC(=O)c2nc(Cl)cnc2N)[n+](CC)c2ccc(OCC(=O)NCCCN)cc21` [Example 2.01], for which, in data set [1], the Papp A→B is 0.2 ×10⁻⁶ cm/s and the Papp B→A worked out at 0.5 ×10⁻⁶ cm/s. Moreover, in data set [2], the IC50 is 1 nM.

Take `CCOCCN1CCC(NC(=O)COc2ccc3c(c2)n(CC)c(CNC(=O)c2nc(Cl)cnc2N)[n+]3CC)CC1` [Example 2.07]: the IC50 in data set [2] came to 3 nM.
